Test results reported in patent US20220304356A1, “FUNCTIONAL FOOD COMPOSITIONS AND COSMETIC COMPOSITIONS COMPRISING GALACTO-OLIGOSACCHARIDES, OR GALACTOOLIGOSACCHARIDES AND COLLAGEN TRIPEPTIDE FOR IMPROVING IMMUNE FUNCTIONS AND SKIN CONDITION” (NEO CREMAR CO., LTD., priority 2020, published 2022).

Key:
Assay type in all cases: in vivo, SKH-1 hairless mice
TIMP1 = experiment: qRT-PCR of skin tissue, TIMP 1; conditions: compared with CON
Experimental: (§1) In order to investigate the effects of the compositions of the present disclosure on the expression of skin condition-related genes, the present inventors measured the expression levels of collagen type I, matrix metalloproteinase (MMP) 2/3/9, TIMP1/2, hyaluronidase (HYAL), and NF-K in comparison with GAPDH.
(§2) Specifically, about 100 mg of the skin tissue was collected from each mouse of the experimental groups administered the compositions of the present disclosure, and total RNA was isolated using TRIzol reagent. To the isolated RNA was added 50 μM Oligo-(dT) primer and 10 mM dNTP mix, followed by reaction at […] for 5 minutes, and then 5×RT Buffer, 0.1 M DTT, RNaseOUT, SuperScript III, and 25 mM MgCl2 were added with mixing, followed by reaction under conditions of 50° C. for 50 minutes and 85° C. for 5 minutes. RNase H was added and incubated at 37° C. for 20 minutes, thereby synthesizing cDNA from mRNA. To perform POR, 1 μL of the synthesized cDNA was mixed with primers, SYBR green gene expression master mix, and DEPO water, followed by qPCR. The expression level of each target gene was indicated as a relative expression level compared with the NOR group.

MMP2 = experiment: qRT-PCR of skin tissue, MMP 2; conditions: compared with CON
Experimental: as §1, §2

[1] = test system: dorsal skin of the mice, irradiated with ultraviolet light; experiment: Skin water-holding capacity (Multi Probe Adapter MPA 6); conditions: UVB-irradiated mice, oral 8 weeks, compared with CON
Experimental: (§3) A total of seven experimental groups (six animals per group) were defined as a normal control group (normal, not UVB-induced), a negative control group (control, UVB-irradiated), a GOS alone treatment group (GOS 200 mg/kg, UVB-irradiated) and a CTP alone treatment group (CTP 200 mg/kg, UVB-irradiated), a GOS/CTP 1:3 mixed treatment group (GOS/CTP 50:150 mg/kg, UVB-irradiated), a GOS/CTP 1:1 mixed treatment group (100:100 mg/kg, UVB-irradiated), and a GOS/CTP 3:1 mixed treatment group (GOS/CTP 150:50 mg/kg, UVB-irradiated).
(§4) The mice were acclimated for one week, and then photo-aging was induced in the mice of six groups except for the normal control group (NOR) by exposing their dorsal skin to ultraviolet light three times a week for 8 weeks through the ultraviolet irradiation device (BLX-E254, Vilber Lourmat, France) equipped with the UVB-ultraviolet lamp (T-8M; Vilber Lourmat, France) (Hong et al., 2015). As for the dosage of ultraviolet irradiation, the irradiation dosage inside the ultraviolet irradiation device was measured by the UV light meter (UV-340; Lutron, Taiwan) and adjusted, and then the UVB dosage was controlled as shown in Table 1. […]

intestinal microflora = experiment: Intestinal microflora change analysis (16S rRNA sequencing of caecum); conditions: photo-aging model, oral
Description: The caecum of the mouse was harvested, and subjected to extraction using the i-genome clinic DNA extraction kit. The 16S rRNA library was constructed through the protocol of Illumina 16S V3˜V4 Amplicon (Illumina, San Diego, Calif., USA). The 16S rRNA V3-V4 region was amplified by the first polymerase chain reaction (PCR-1) using the DNA extract, and the PCR product was purified using Agencourt AMPure XP Beads (Beckman Coulter, Inc., Pasadena, Calif., USA), and the washed amplicons were quantified. The PCR product was used as a template for the second PCR (PCR-II) with Illumina dual index adapter sequence, and the final amplicon library was sequenced using the v3, 600 cycle kit and 301 base paired-end chemistry. Sequence data analysis was performed through QIIME 2 software, and then quality filtering was performed. […] The operational taxonomic units (OTUs) of the sequence were analyzed, and the alpha diversity analysis included the Richness, Shannon Index, and Abundance-based Coverage Estimator (ACE) indexes. […] The Kruskal-Wallis test was performed to analyze the diversity of the intestinal microflora and the difference in relative abundance, and the difference in beta diversity was analyzed by the ANOSIM and permutational multivariate analysis of variance (PERMANOVA) tests.

[2] = test system: dorsal skin of the mice, irradiated with ultraviolet light; experiment: Erythema value; conditions: UVB-irradiated mice, oral 8 weeks, compared with CON; no significant difference
Experimental: as §3, §4

[3] = Short-chain fatty acid (SCFA) analysis of caecum using GC
Experimental: The caecum of the mouse was harvested and extracted with methanol, and then the extract was analyzed for SCFA by using gas chromatography (Agilent Technologies, CA, USA) equipped with GC column (DB-FFAP 123-3253, 50 m×0.32 mm×[…]). The column temperature was set to be maintained at 100° C. for 1 minute, raised to 180° C. at a rate of 8° C./min, then raised to 200° C. at a rate of 20° C./min, and then stagnant at 200° C. for 5 min. The SCFA contents in the caecum were analyzed through the standard materials of acetic acid, propionic acid, and butyric acid.

**Q.** Which results are given for collagen tripeptide [CTP]?
**A.** gene expression level of TIMP 1 (TIMP1): significantly increased; gene expression level of MMP 2 (MMP2): significantly decreased; change in water-holding capacity before and after ultraviolet irradiation [1]: significantly increased; Firmicutes/Bacteroidetes ratio (intestinal microflora): tended to increase; change in erythema value before and after ultraviolet irradiation [2]: tended to decrease; content of butyric acid [3]: significantly increased; content of valeric acid ([3]; compared with CON): significant increase; total short-chain fatty acid content ([3]; compared with CON): tendency of increase; content of propionic acid ([3]; compared with CON, no significant difference): tended to increase
